“And” between values parts separate entries of the source, which are not always exact repeats. Identical values can stand only once.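 Tested at 5 concentrations; 48 h exposure; 96-well plates; endpoints linearly interpolated, else capped at highest concentration. GI50 is the concentration that inhibits growth by half. The concentration for full growth arrest is given as TGI.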 Where a SMILES comes first, the peptide text is derived from it. [ ]: non-standard residue; d: D form. The star is where a group is joined. ξ: configuration not given here. dIva = CC[C@@](C)(N)C(=O)O; Aib = CC(C)(N)C(=O)O; ξP = O=C(O)C1CCCN1; βAla = NCCC(=O)O; X5 = OCN*
Legend:
Experiment in all cases: NCI anticancer screen, dose series, 48 h
HCC-2998 colon = system: HCC-2998 colon
HCT-15 colon = system: HCT-15 colon
HT29 colon = system: HT29 colon
IGROV1 ovarian = system: IGROV1 ovarian
NCI-H522 lung = system: NCI-H522 lung
RXF 393 renal = system: RXF 393 renal
SF-268 CNS = system: SF-268 CNS
SF-295 CNS = system: SF-295 CNS
SK-MEL-2 melanoma = system: SK-MEL-2 melanoma
SN12C renal = system: SN12C renal

CN(C)c1ccc(/C=c2\sc3nnc(Cc4ccccc4)n3c2=O)cc1
TGI (HCC-2998 colon): > 100 µM | GI50 (HCT-15 colon): > 10 µM | TGI (HCT-15 colon): > 10 µM and 37.8 µM | GI50 (HT29 colon): > 10 µM | TGI (HT29 colon): > 100 µM | GI50 (IGROV1 ovarian): > 100 µM | TGI (IGROV1 ovarian): > 100 µM | GI50 (NCI-H522 lung): > 100 µM | TGI (NCI-H522 lung): > 100 µM | GI50 (RXF 393 renal): > 10 µM | TGI (RXF 393 renal): > 10 µM and 97.3 µM | GI50 (SF-268 CNS): > 10 µM | TGI (SF-268 CNS): > 10 µM and 57.8 µM | GI50 (SF-295 CNS): > 100 µM | TGI (SF-295 CNS): > 100 µM | GI50 (SK-MEL-2 melanoma): > 100 µM | TGI (SK-MEL-2 melanoma): > 100 µM | GI50 (SN12C renal): > 100 µM | TGI (SN12C renal): > 100 µM

O=C(O)CSc1nnc2c3ccccc3c3ccccc3c2n1
TGI (HCC-2998 colon): > 100 µM | TGI (HCT-15 colon): > 100 µM | TGI (HT29 colon): > 100 µM | TGI (IGROV1 ovarian): > 100 µM | TGI (NCI-H522 lung): > 100 µM | TGI (RXF 393 renal): > 100 µM | TGI (SF-268 CNS): > 100 µM | TGI (SF-295 CNS): > 100 µM | TGI (SK-MEL-2 melanoma): > 100 µM | TGI (SN12C renal): > 100 µM

CN1CCN(Cc2ccc(NC(=O)c3[nH]ncc3Nc3cc(OC4CCCC4)ncn3)cc2)CC1
GI50 (HCC-2998 colon): 3.1 µM | TGI (HCC-2998 colon): 10.5 µM | GI50 (HCT-15 colon): 1.24 µM | TGI (HCT-15 colon): 11 µM | GI50 (HT29 colon): 2.53 µM | TGI (HT29 colon): 8.53 µM | GI50 (IGROV1 ovarian): 1.75 µM | TGI (IGROV1 ovarian): 10.8 µM | GI50 (NCI-H522 lung): 2.15 µM | TGI (NCI-H522 lung): 7.91 µM | GI50 (RXF 393 renal): 1.36 µM | TGI (RXF 393 renal): 2.91 µM | GI50 (SF-268 CNS): 4.48 µM | TGI (SF-268 CNS): 19 µM | GI50 (SF-295 CNS): 2.93 µM | TGI (SF-295 CNS): 12.5 µM | GI50 (SK-MEL-2 melanoma): 3.75 µM | TGI (SK-MEL-2 melanoma): 15.3 µM | GI50 (SN12C renal): 3.37 µM | TGI (SN12C renal): 13.8 µM

COC(=O)[C@]1(C)CC[C@]2(C)CC[C@]3(C)C(=CC(=O)[C@@H]4[C@@]5(C)CCC(=O)NC(C)(C)[C@@H]5CC[C@]43C)[C@@H]2C1
GI50 (HCC-2998 colon): 18.4 µM | TGI (HCC-2998 colon): 38.7 µM | GI50 (HCT-15 colon): 16.1 µM | TGI (HCT-15 colon): > 100 µM | GI50 (HT29 colon): 11.9 µM | TGI (HT29 colon): 80.5 µM | GI50 (IGROV1 ovarian): 26.7 µM | TGI (IGROV1 ovarian): > 100 µM | GI50 (NCI-H522 lung): 18.2 µM | TGI (NCI-H522 lung): 69.3 µM | GI50 (RXF 393 renal): 13.5 µM | TGI (RXF 393 renal): 27.5 µM | GI50 (SF-268 CNS): 28.2 µM | TGI (SF-268 CNS): > 100 µM | GI50 (SF-295 CNS): 19.4 µM | TGI (SF-295 CNS): 43.8 µM | GI50 (SK-MEL-2 melanoma): 21.6 µM | TGI (SK-MEL-2 melanoma): 95.3 µM | GI50 (SN12C renal): 17.1 µM | TGI (SN12C renal): 35.2 µM

C=CC(=O)Nc1cccc(Nc2nc(Nc3ccc(N4CCN(C(C)=O)CC4)cc3OC)ncc2C(F)(F)F)c1
GI50 (HCC-2998 colon): 2.58 µM and 4.62 µM | TGI (HCC-2998 colon): > 10 µM and 22.4 µM | GI50 (HCT-15 colon): 3.06 µM and 2.94 µM | TGI (HCT-15 colon): > 10 µM and 13.8 µM | GI50 (HT29 colon): 2.18 µM and 1.55 µM | TGI (HT29 colon): > 27.1 µM | GI50 (IGROV1 ovarian): 1.94 µM and 2.71 µM | TGI (IGROV1 ovarian): 9.84 µM and 13.6 µM | GI50 (NCI-H522 lung): 0.484 µM and 0.506 µM | TGI (NCI-H522 lung): 6.73 µM and 7.66 µM | GI50 (RXF 393 renal): 2.83 µM and 2.17 µM | TGI (RXF 393 renal): > 10 µM and 10.1 µM | GI50 (SF-268 CNS): 5.29 µM and 3.19 µM | TGI (SF-268 CNS): > 10 µM and 26.2 µM | GI50 (SF-295 CNS): 6.82 µM and 8.18 µM | TGI (SF-295 CNS): > 10 µM and 23.1 µM | GI50 (SK-MEL-2 melanoma): 2.04 µM and 2.23 µM | TGI (SK-MEL-2 melanoma): 6.83 µM and 10.8 µM | GI50 (SN12C renal): 4.02 µM and 2.95 µM | TGI (SN12C renal): > 10 µM and 54.8 µM

COc1cc[nH]c1/C=C1\C(=O)Nc2ccc([N+](=O)[O-])c(N3CC[C@@H](O)C3)c21
GI50 (HCC-2998 colon): 0.544 µM | TGI (HCC-2998 colon): 2 µM | GI50 (HCT-15 colon): 0.123 µM | TGI (HCT-15 colon): 2.92 µM | GI50 (HT29 colon): 0.209 µM | TGI (HT29 colon): 1.56 µM | GI50 (IGROV1 ovarian): 0.467 µM | TGI (IGROV1 ovarian): 4.27 µM | GI50 (NCI-H522 lung): 0.393 µM | TGI (NCI-H522 lung): 1.23 µM | GI50 (RXF 393 renal): 0.0566 µM | TGI (RXF 393 renal): 0.146 µM | GI50 (SF-268 CNS): 0.255 µM | TGI (SF-268 CNS): 1.29 µM | GI50 (SF-295 CNS): 0.128 µM | TGI (SF-295 CNS): 3.4 µM | GI50 (SK-MEL-2 melanoma): 0.229 µM | TGI (SK-MEL-2 melanoma): 0.688 µM | GI50 (SN12C renal): 0.211 µM | TGI (SN12C renal): 4 µM

O=C(N/N=C/c1cccc(O)c1)c1ccc(C(F)(F)F)nc1Nc1cccc(C(F)(F)F)c1
GI50 (HCC-2998 colon): 1.02 µM | TGI (HCC-2998 colon): 3.42 µM | GI50 (HCT-15 colon): 0.881 µM | TGI (HCT-15 colon): 10.1 µM | GI50 (HT29 colon): 3.47 µM | TGI (HT29 colon): 11.2 µM | GI50 (IGROV1 ovarian): 2.65 µM | TGI (IGROV1 ovarian): 11.6 µM | GI50 (NCI-H522 lung): 1.67 µM | TGI (NCI-H522 lung): 6.72 µM | GI50 (RXF 393 renal): 1.13 µM | TGI (RXF 393 renal): 8.85 µM | GI50 (SF-268 CNS): 1.04 µM | TGI (SF-268 CNS): 6.13 µM | GI50 (SK-MEL-2 melanoma): 1.76 µM | TGI (SK-MEL-2 melanoma): 6.07 µM | GI50 (SN12C renal): 1.79 µM | TGI (SN12C renal): 6.34 µM

COc1ccc(CNC(=O)c2c(C)n([O-])c3cc(F)c(F)cc3[n+]2=O)cc1
GI50 (HCC-2998 colon): 2.07 µM | TGI (HCC-2998 colon): 5.77 µM | GI50 (HCT-15 colon): 1.77 µM | TGI (HCT-15 colon): 3.43 µM | GI50 (HT29 colon): 3.91 µM | TGI (HT29 colon): 16 µM | GI50 (IGROV1 ovarian): 1.9 µM | TGI (IGROV1 ovarian): 3.84 µM | GI50 (NCI-H522 lung): 11.5 µM | TGI (NCI-H522 lung): 27 µM | GI50 (RXF 393 renal): 8.2 µM | TGI (RXF 393 renal): 23.4 µM | GI50 (SF-268 CNS): 4.4 µM | TGI (SF-268 CNS): 15.7 µM | GI50 (SK-MEL-2 melanoma): 15.4 µM | TGI (SK-MEL-2 melanoma): 29.5 µM | GI50 (SN12C renal): 14.2 µM | TGI (SN12C renal): 27.2 µM

CC[C@@](C)(NC(=O)[C@H](C)NC(=O)CCNC(=O)C(C)(C)NC(=O)[C@H](C)NC(=O)[C@@H]1CCCN1C(=O)[C@@](C)(CC)NC(=O)[C@H](Cc1ccccc1)NC(=O)C1CCCN1C(=O)C(C)(C)NC(=O)C1CCCN1C(=O)C(C)(C)NC(C)=O)C(=O)NCCC(=O)N[C@@H](CC(C)C)C(=O)NC(C)(C)C(=O)NCCC(=O)N[C@@H](CC(C)C)C(=O)NC(C)(C)C(=O)NC(C)(C)C(=O)N[C@@H](CC(C)C)C(=O)NCCC(=O)NCO (stereo partly drawn) (Ac-[Aib][ξP][Aib][ξP]F[dIva]PA[Aib][βAla]A[dIva][βAla]L[Aib][βAla]L[Aib][Aib]L[βAla]-X5)
GI50 (HCC-2998 colon): 0.145 µM | TGI (HCC-2998 colon): 0.351 µM | GI50 (HCT-15 colon): 0.229 µM | TGI (HCT-15 colon): 0.446 µM | GI50 (HT29 colon): 0.197 µM | TGI (HT29 colon): 0.414 µM | GI50 (NCI-H522 lung): 0.0868 µM | TGI (NCI-H522 lung): 0.304 µM | GI50 (RXF 393 renal): 0.221 µM | TGI (RXF 393 renal): 0.436 µM | GI50 (SF-268 CNS): 0.143 µM | TGI (SF-268 CNS): 0.368 µM | GI50 (SF-295 CNS): 0.0539 µM | TGI (SF-295 CNS): 0.213 µM | GI50 (SK-MEL-2 melanoma): 0.202 µM | TGI (SK-MEL-2 melanoma): 0.427 µM | GI50 (SN12C renal): 0.119 µM | TGI (SN12C renal): 0.373 µM
